Experimental data reported in ChEMBL document CHEMBL1135130, “Substituted tetrahydrofuroyl-1-phenylalanine derivatives as potent and specific VLA-4 antagonists” (Bioorg Med Chem Lett, 2002).

Tests used:
[1] = biological target: Integrin alpha-4/beta-7 (Homo sapiens) (UniProt P13612+P26010); experiment: Selectivity for alpha4-beta7 to that of alpha4-beta1; format: protein-complex assay
Integrin alpha-4/beta-1 [2] = biological target: T1, Integrin alpha-4/beta-1 (Homo sapiens, UniProt P05556+P13612); experiment: Inhibition of alpha4-beta1 (very late) antigen binding with VCAM-1 immunoglobulin; format: protein-complex assay
T1 sequence (P05556 whole entry, one chain of several): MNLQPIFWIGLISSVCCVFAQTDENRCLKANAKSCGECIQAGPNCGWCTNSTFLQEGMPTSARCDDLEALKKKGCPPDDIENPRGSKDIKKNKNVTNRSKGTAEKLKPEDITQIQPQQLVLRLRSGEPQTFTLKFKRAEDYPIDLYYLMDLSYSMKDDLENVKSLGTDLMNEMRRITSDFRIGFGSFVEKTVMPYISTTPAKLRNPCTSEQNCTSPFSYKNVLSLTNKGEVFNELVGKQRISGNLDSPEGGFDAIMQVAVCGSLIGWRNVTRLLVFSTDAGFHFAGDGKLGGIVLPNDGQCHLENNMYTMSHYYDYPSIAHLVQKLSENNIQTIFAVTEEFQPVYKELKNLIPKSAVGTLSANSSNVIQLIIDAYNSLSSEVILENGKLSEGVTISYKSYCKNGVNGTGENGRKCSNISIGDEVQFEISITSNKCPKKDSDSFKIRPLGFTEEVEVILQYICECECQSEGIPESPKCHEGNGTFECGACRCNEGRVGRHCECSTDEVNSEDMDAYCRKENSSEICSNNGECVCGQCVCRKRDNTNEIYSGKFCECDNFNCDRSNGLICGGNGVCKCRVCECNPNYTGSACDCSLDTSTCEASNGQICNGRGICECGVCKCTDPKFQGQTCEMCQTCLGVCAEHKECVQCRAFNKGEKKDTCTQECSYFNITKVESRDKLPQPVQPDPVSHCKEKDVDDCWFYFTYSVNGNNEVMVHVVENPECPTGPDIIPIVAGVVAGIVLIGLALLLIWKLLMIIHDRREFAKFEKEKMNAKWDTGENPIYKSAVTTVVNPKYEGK

[3] = Plasma clearance determined; format: ADME, organism-based; details: read-out: Clp
[4] = Oral bioavailability; format: ADME, organism-based; details: eutheria, in vivo
Integrin alpha-4/beta-7 [5] = biological target: T2, Integrin alpha-4/beta-7 (Homo sapiens, UniProt P13612+P26010); experiment: Inhibition of alpha4-beta7 antigen with MAdCAM immunoglobulin; format: protein-complex assay
T2 sequence (P13612 whole entry): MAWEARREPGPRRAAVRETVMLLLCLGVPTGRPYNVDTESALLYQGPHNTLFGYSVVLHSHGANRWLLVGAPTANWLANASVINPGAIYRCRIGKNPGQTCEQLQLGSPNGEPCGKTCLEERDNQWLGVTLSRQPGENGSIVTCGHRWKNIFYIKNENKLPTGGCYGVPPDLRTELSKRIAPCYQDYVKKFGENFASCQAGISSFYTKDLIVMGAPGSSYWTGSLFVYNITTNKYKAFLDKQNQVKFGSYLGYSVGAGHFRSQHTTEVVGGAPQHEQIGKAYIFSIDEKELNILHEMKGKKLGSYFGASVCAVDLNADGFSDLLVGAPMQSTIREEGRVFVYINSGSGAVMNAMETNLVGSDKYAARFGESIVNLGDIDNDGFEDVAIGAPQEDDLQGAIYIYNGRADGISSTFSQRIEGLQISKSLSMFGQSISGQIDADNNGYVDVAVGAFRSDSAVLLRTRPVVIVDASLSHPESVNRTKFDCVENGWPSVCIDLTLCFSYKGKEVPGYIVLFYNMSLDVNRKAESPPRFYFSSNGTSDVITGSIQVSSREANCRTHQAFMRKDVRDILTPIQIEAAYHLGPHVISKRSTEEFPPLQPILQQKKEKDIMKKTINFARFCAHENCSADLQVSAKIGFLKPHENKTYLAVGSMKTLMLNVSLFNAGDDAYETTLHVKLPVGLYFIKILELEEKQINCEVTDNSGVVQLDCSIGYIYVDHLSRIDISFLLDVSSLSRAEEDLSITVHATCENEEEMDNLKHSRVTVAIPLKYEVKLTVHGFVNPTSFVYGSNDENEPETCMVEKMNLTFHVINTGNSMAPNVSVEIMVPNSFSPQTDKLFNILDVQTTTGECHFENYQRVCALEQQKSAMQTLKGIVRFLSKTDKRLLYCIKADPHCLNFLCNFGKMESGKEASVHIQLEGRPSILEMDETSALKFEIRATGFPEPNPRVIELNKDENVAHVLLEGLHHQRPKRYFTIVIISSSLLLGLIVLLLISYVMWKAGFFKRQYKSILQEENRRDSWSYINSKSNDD
T2 sequence (P26010 whole entry): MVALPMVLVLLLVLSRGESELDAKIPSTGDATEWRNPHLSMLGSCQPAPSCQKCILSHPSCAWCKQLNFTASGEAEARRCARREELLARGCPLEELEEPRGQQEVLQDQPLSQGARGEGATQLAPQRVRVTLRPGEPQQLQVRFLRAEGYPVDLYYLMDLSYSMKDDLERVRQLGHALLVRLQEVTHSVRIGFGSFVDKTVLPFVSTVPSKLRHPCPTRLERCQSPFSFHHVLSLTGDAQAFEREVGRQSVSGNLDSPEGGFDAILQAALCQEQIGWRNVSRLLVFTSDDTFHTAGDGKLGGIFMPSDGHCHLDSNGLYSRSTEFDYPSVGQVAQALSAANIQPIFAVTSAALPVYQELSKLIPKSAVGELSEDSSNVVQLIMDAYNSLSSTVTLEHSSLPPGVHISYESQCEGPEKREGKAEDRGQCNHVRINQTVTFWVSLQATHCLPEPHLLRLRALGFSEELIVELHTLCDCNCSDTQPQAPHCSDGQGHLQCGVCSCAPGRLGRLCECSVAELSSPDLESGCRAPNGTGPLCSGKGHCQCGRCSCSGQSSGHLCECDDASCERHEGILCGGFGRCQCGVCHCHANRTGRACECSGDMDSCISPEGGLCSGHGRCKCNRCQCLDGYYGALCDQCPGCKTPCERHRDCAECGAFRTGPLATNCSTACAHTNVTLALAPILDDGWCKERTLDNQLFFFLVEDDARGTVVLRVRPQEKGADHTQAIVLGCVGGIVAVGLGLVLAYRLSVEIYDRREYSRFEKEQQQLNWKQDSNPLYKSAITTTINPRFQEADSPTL

Integrin alpha-4/beta-1 [6] = biological target: T1, Integrin alpha-4/beta-1; experiment: Inhibition of alpha4-beta1 (very late) antigen binding with VCAM-1 immunoglobulin plus 5% human plasma; format: cell-free
Integrin alpha-4/beta-7 [7] = biological target: T2, Integrin alpha-4/beta-7; experiment: Inhibition of alpha4-beta7 integrin binding to MAdCAM immunoglobulin; format: protein-complex assay
[8] = Selectivity for alpha4-beta7 over alpha4-beta1 integrins

Row | Ratio [1] | IC50 (Integrin alpha-4/beta-1 [2]) | clearance [3] | bioavailability [4] | IC50 (Integrin alpha-4/beta-7 [5]) | IC50 (Integrin alpha-4/beta-1 [6]) | IC50 (Integrin alpha-4/beta-7 [7]) | Ratio [8] | Compound
1 | 22 | 0.35 nM | 81.8 mL/min/kg | 1.9% | 7.8 nM | 0.61 nM |  |  | COCCC[C@]1(C(=O)N[C@@H](Cc2ccc(-c3c(OC)cccc3OC)cc2)C(=O)O)CCCO1
2 |  | 23.1 nM |  |  |  |  | 11 nM | 11 | COc1ccccc1-c1ccc(C[C@H](NC(=O)[C@@]2(CC(=O)N3CCOCC3)CCCO2)C(=O)O)cc1
3 | 21 | 0.34 nM | 2.9 mL/min/kg | 51% | 7.09 nM | 3.61 nM |  |  | COc1cccc(OC)c1-c1ccc(C[C@H](NC(=O)[C@@]2(C)CCCO2)C(=O)O)cc1
